# Assay results taken from patent publication US5952307A, “Basic α-aminoalkylphosphonate derivatives” (priority 1997, dated 1999).
# Assays:
# Type in all cases: biochemical
# human thrombin = biological target: T1, human thrombin (Homo sapiens, UniProt P00734); conditions: Table II; for kobs /[I] human thrombin: 0.07 μM thrombin, 0.25-42 μM inhibitor, 80 mM Hepes pH 7.5, 428 mM NaCl, 8% DMSO, 25° C., NI = no inhibition; for % Inh human thrombin: printed in the kobs/[I] column
# T1 construct: bovine trypsin, human thrombin
# Protocol: (§1) Inactivation rates of serine proteases by aryl diesters of peptidyl derivatives of α-aminoalkylphosphonates were measured by the incubation method. An aliquot of inhibitor (25 or 50 μl) in Me2 SO was added to a buffered enzyme solution (0.01-2.3 μM) to initiate the inactivation. Aliquots (50 μl) were withdrawn at various intervals and the residual enzymatic activity was measured. Me2 SO concentration in the reaction mixture was 8-12% (v/v). A 0.1 M HEPES, 0.01 M CaCl2, pH 7.5 buffer was utilized for trypsin and trypsin-like enzymes. A 0.1 M HEPES, 0.5 M NaCl, pH 7.5, was utilized for the other serine proteases. Peptide thioesters or peptide nitroanilides with the appropriate sequences were used as substrates for various serine proteases. All peptide thioesters hydrolysis rates were measured with the assay mixture containing 4,4'-dithiodipyridine {ε324 =19800 M^-1 cm^-1; Grasetti & Murray, Arch. Biochem. Biophys. 1967, 119, 41-48}. Peptide 4-nitroanilide hydrolysis was measured at 410 nm {ε410 =8800 M^-1 cm^-1; Erlanger et al., Arch. Biochem. Biophys. 1961, 95, 271-278}.
# (§2) ^a Enzyme was incubated with the inhibitor in 250 μL of the proper
# (§3) buffer at 25° C. Specifically, the inhibition reation mixtures wer
# (§4) Hepes, pH 7.5 buffer containing 1 mM CaCl2 and 8% DMSO; 0.07 μM
# thrombin, 0.25-42 μM inhibitor in an 80 mM Hepes, pH 7.5 buffer
# (§5) containing 428 mM NaCl and 8% DMSO; 0.07 μM tryptase, 20-66 μM
# (§6) DMSO. Aliquots of 25 μL were withdrawn at various intervals and the
# (§7) residual enzymatic activity was measured as described in experimental
# (§8) section. The kobs values were calculated from pseudofirst-order
# (§9) ^a Enzyme (0.06-0.5 μM) was incubated with the inhibitor (0.25-42
# (§10) μM) in 250 μL of the proper buffer containing 9% DMSO at 25°
# (§11) C. The final inhibition reaction mixtures are given in the footnote to
# (§12) Table 1. Aliquots of 25 μL were withdrawn at various intervals and the […]
# bovine trypsin = biological target: T2, bovine trypsin (Bos taurus, UniProt P00760); test: Inactivation rate of bovine trypsin, incubation method; conditions: for kobs /[I] bovine trypsin: 0.13 μM trypsin, 0.25-42 μM inhibitor, 80 mM Hepes pH 7.5, 1 mM CaCl2, 8% DMSO, 25° C., NI = no inhibition; for kobsd /[I] bovine trypsin: Table I, 0.1M Hepes, 0.01M CaCl2 pH 7.5, 25° C., 2% DMSO, substrate Z--Arg--SBzl, NI = no inhibition after 25 min
# T2 sequence (P00760 24-246): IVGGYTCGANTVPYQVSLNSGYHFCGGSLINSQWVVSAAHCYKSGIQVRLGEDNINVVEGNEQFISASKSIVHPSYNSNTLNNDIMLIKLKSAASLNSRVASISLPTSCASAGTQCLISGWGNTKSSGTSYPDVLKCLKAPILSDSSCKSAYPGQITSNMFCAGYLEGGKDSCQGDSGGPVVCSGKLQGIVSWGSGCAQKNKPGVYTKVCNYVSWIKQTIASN
# Protocol: as §1, with “271-278}. First order inactivation rate constants (Kobs) were obtained from plots of In vt /vo vs time, and the correlation coefficients were greater then 0.98.” for “271-278}.”
# (§13) ^a Inhibition constants were measured in 0.1M Hepes, 0.01M CaCl2
# (§14) pH 7.5 for trypsin, granzymes A, and K, and in 0.1M Hepes, 10% glycerol,
# (§15) 10 mM heparin, pH 7.5 for mast cell tryptase, and at 25° C. The
# (§16) reaction mixtures contained 2% DMSO for trypsin, 7.6% for granzyme A, and
# (§17) 7.1% for granzyme K and tryptase. The substrate was Z--Arg--SBzl for
# (§18) granzymes and trypsin, and Z--Arg--SBzl or Z--Lys--SBzl for tryptase in
# (§19) the presence of DTNB. The inhibitor # concentration ranged from 0.001 to
# (§20) ^b NI, no inhibition after 25 min of incubation with enzyme.
# as §2, §3
# composed of: 0.13 μM trypsin, 0.25-42 μM inhibitor in an 80 mM
# as §4, §6, §7, §8, §9, §10, §11, §12
# human granzyme A = biological target: T3, human granzyme A (Homo sapiens, UniProt P12544); test: Inactivation rate of human granzyme A, incubation method; conditions: Table I; 0.1M Hepes, 0.01M CaCl2 pH 7.5, 25° C., 7.6% DMSO, substrate Z--Arg--SBzl
# T3 sequence (P12544 29-262): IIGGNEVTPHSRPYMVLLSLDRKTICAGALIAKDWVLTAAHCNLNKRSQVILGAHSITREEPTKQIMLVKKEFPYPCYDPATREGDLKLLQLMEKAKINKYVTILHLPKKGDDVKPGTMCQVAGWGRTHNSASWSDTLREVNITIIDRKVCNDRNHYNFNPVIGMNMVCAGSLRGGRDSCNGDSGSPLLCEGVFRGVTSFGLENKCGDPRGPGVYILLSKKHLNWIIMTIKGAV
# Protocol: as §1, with “271-278}. First order inactivation rate constants (Kobs) were obtained from plots of In vt /vo vs time, and the correlation coefficients were greater then 0.98.” for “271-278}.”
# as §13, §14, §15, §16, §17, §18, §19, §20
# mast cell tryptase = mast cell tryptase (Homo sapiens, UniProt Q15661); test: Inactivation rate of mast cell tryptase, incubation method; conditions: for kobsd /[I] mast cell tryptase: Table I, 0.1M Hepes, 10% glycerol, 10 mM heparin, pH 7.5, 25° C., 7.1% DMSO, NI = no inhibition after 25 min of incubation; for kobs /[I] mast cell tryptase: Table II, 0.07 μM tryptase, 20-66 μM inhibitor, Hepes pH 7.5, heparin, 9% glycerol, 8% DMSO, 25° C., NI = no inhibition
# Protocol: as §1, with “271-278}. First order inactivation rate constants (Kobs) were obtained from plots of In vt /vo vs time, and the correlation coefficients were greater then 0.98.” for “271-278}.”
# as §13, §14, §15, §16, §17, §18, §19, §20, §2, §5
# inhibitor # in an mM Hepes, pH 7.5 buffer containing 8 mM heparin, 166 m
# NaCl, 0.8 mM Mes, 9% glycerol and 8% DMSO; 0.42 μM factor Xa, 66 μM
# as §6, §7, §8, §9, §10, §11, §12
# Sequence of mast cell tryptase (Q15661 31-275): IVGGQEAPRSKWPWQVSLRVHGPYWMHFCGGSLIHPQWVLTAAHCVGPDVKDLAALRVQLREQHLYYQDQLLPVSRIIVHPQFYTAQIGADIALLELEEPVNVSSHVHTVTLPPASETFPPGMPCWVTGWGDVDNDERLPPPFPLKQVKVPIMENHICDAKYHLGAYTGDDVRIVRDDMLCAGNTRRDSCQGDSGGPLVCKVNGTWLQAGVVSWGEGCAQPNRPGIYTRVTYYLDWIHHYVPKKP
SMILES,kobs /[I] human thrombin (human thrombin),kobs /[I] bovine trypsin (bovine trypsin; Table II),further results
CC(C)CC(NC(=O)C(CC(N)=O)NC(=O)OC(C)(C)C)C(=O)NC(C(=O)NC(c1ccc(C(=N)N)cc1)P(=O)(Oc1ccccc1)Oc1ccccc1)C(C)O (mixture of isomers) [Boc--Asn--Leu--Thr-(4-AmPhGly)^P (OPh)2],46 ± 6 M⁻¹ s⁻¹,18 ± 2 M⁻¹ s⁻¹,–
CC(C)C(NC(=O)C(Cc1ccccc1)NC(=O)OC(C)(C)C)C(=O)NC(c1ccc(C(=N)N)cc1)P(=O)(Oc1ccccc1)Oc1ccccc1 (mixture of isomers) [Boc--D--Phe--Val-(4-AmPhGly)^P (OPh)2],63 ± 4 M⁻¹ s⁻¹,30 ± 2 M⁻¹ s⁻¹,–
CC(C)CC(NC(=O)OC(C)(C)C)C(=O)NC(CO)C(=O)NC(c1ccc(C(=N)N)cc1)P(=O)(Oc1ccccc1)Oc1ccccc1 (mixture of isomers) [Boc--Leu--Ser-(4-AmPhGly)^P (OPh)2],97 ± 2 M⁻¹ s⁻¹,177 ± 2 M⁻¹ s⁻¹,–
CC(C)CC(NC(=O)OC(C)(C)C)C(=O)NC(C(=O)NC(c1ccc(C(=N)N)cc1)P(=O)(Oc1ccccc1)Oc1ccccc1)C(C)O (mixture of isomers) [Boc--Leu--Thr-(4-AmPhGly)^P (OPh)2],75 ± 1 M⁻¹ s⁻¹,35 ± 6 M⁻¹ s⁻¹,–
CC(C)C(NC(=O)OC(C)(C)C)C(=O)NC(C(=O)NC(c1ccc(C(=N)N)cc1)P(=O)(Oc1ccccc1)Oc1ccccc1)C(C)C (mixture of isomers) [Boc--Val--Val-(4-AmPhGly)^P (OPh)2],85 ± 5 M⁻¹ s⁻¹,61 ± 5 M⁻¹ s⁻¹,–
CC(C)CC(NC(=O)OCc1ccccc1)C(=O)NC(c1ccc(C(=N)N)cc1)P(=O)(Oc1ccccc1)Oc1ccccc1 (mixture of isomers) [Cbz--Leu-(4-AmPhGly)^P (OPh)2],–,1.3 ± 0.1 M⁻¹ s⁻¹,kobsd /[I] human granzyme A (human granzyme A): 6.3 ± 0.7 M⁻¹ s⁻¹; % Inh human thrombin (human thrombin): 19%; kobsd /[I] mast cell tryptase (mast cell tryptase): 0.3 M⁻¹ s⁻¹; kobs /[I] mast cell tryptase (mast cell tryptase): 0.3 M⁻¹ s⁻¹; kobsd /[I] bovine trypsin (bovine trypsin): 50 ± 1 M⁻¹ s⁻¹
CC(NC(=O)C(CCCCN)NC(=O)OCc1ccccc1)C(=O)NC(c1ccc(C(=N)N)cc1)P(=O)(Oc1ccccc1)Oc1ccccc1 (mixture of isomers) [Cbz--Lys--Ala-(4-AmPhGly)^P (OPh)2],180 ± 7 M⁻¹ s⁻¹,"3,140 ± 262 M^-1 s^-1",kobsd /[I] human granzyme A (human granzyme A): 90 ± 9 M⁻¹ s⁻¹; kobsd /[I] mast cell tryptase (mast cell tryptase): 2 M⁻¹ s⁻¹; kobs /[I] mast cell tryptase (mast cell tryptase): 2.0 ± 0.0 M⁻¹ s⁻¹; kobsd /[I] bovine trypsin (bovine trypsin): 3140 ± 262 M⁻¹ s⁻¹
N=C(N)c1ccc(C(NC(=O)C(Cc2c[nH]c3ccccc23)NC(=O)OCc2ccccc2)P(=O)(Oc2ccccc2)Oc2ccccc2)cc1 (mixture of isomers) [Cbz--Trp-(4-AmPhGly)^P (OPh)2],1.2 ± 0.0 M⁻¹ s⁻¹,0.6 M⁻¹ s⁻¹,–
CC(C)CC(N)C(=O)NC(C(=O)NC(c1ccc(C(=N)N)cc1)P(=O)(Oc1ccccc1)Oc1ccccc1)C(C)O (mixture of isomers) [Leu--Thr-(4-AmPhGly)^P (OPh)2],58 ± 3 M⁻¹ s⁻¹,24.5 ± 0.0 M⁻¹ s⁻¹,–
Cc1ccc(S(=O)(=O)NC(c2ccc(C(=N)N)cc2)P(=O)(Oc2ccccc2)Oc2ccccc2)cc1 (racemic) [Tolyl-SO2-(4-AmPhGly)^P (OPh)2],94 ± 26 M⁻¹ s⁻¹,35 ± 6 M⁻¹ s⁻¹,–
N=C(N)c1ccc(C(NC(=O)CCCc2ccccc2)P(=O)(Oc2ccccc2)Oc2ccccc2)cc1 (stereo not drawn) [4-Phenylbutanoyl-(4-AmPhGly)^P (OPh)2],17 ± 1 M⁻¹ s⁻¹,–,"% Inh bovine trypsin (bovine trypsin; Table II, printed in the kobs/[I] column): 15%"
"Cl.N=C(N)c1cccc(C(NC(=O)OCc2ccccc2)P(=O)(Oc2ccccc2)Oc2ccccc2)c1 (stereo not drawn) [Cbz-(3-AmPhGly)^P (OPh)2, Diphenyl N-Benzyloxycarbonylamino-(3-amidinophenyl)methanephosphonate Hydrochloride]",–,–,% Inh human thrombin (human thrombin): 50%
"Cl.N=C(N)c1ccc(C(NC(=O)OCc2ccccc2)P(=O)(Oc2ccccc2)Oc2ccccc2)cc1 (stereo not drawn) [Cbz-(4-AmPhGly)^P (OPh)2, Diphenyl N-benzyloxycarbonylamino(4-amidinophenyl)methanephosphonate hydrochloride]",80 M⁻¹ s⁻¹,170 M⁻¹ s⁻¹,kobsd /[I] bovine trypsin (bovine trypsin): 2000 M⁻¹ s⁻¹
"Cl.N=C(N)c1ccc(C(NC(=O)OCc2ccccc2)P(=O)(O)Oc2ccccc2)cc1 (stereo not drawn) [Cbz-(4-AmPhGly)^P (OPh)(OH), Phenyl Hydrogen N-Benzyloxycarbonylamino-(4-amidinophenyl)methanephosphonate Hydrochloride]",–,0.3 M⁻¹ s⁻¹,–
"COP(=O)(Oc1ccccc1)C(NC(=O)OCc1ccccc1)c1ccc(C(=N)N)cc1.Cl (stereo not drawn) [Cbz-(4-AmPhGly)^P (OPh)(OMe), Methyl Phenyl N-Benzyloxycarbonylamino-(4-amidinophenyl)methanephosphonate Hydrochloride]",41 M⁻¹ s⁻¹,83 M⁻¹ s⁻¹,–
"Cl.N=C(N)c1ccc(C(NC(=O)OCc2ccccc2)P(=O)(Oc2ccc(Cl)cc2)Oc2ccc(Cl)cc2)cc1 (stereo not drawn) [Cbz-(4-AmPhGly)^P (OPh-p-Cl)2, Di-p-chlorophenyl N-Benzyloxycarbonylamino-(4-amidinophenyl)methanephosphonate Hydrochloride]","9,300 ± 210 M^-1 s^-1","41,100 ± 5400 M^-1 s^-1",kobs /[I] mast cell tryptase (mast cell tryptase): 3 ± 0 M⁻¹ s⁻¹
N=C(N)c1ccc(C(NC(=O)CNC(=O)OCc2ccccc2)P(=O)(Oc2ccccc2)Oc2ccccc2)cc1 (stereo not drawn) [Cbz--Gly-(4-AmPhGly)^P (OPh)2],24 ± 3 M⁻¹ s⁻¹,195 ± 9 M⁻¹ s⁻¹,–
